Data on two compounds can be found in patent publication US8629132B2, “Kinase inhibitors” (Genosco, priority 2009, dated 2014).

pIC50: −log10 of the molar value.

As usually defined, the inhibition is the change of the read-out against control, counted positive when it falls. As a reminder, the pIC50 is −log10 of the IC50, conventionally taken in molar units.

Assay [1] addresses T1, ZAP70 (Homo sapiens, UniProt P43403).
T1 construct: Purified full-length human SYK, ZAP70, PIM1, PYK2; purchased Carna Biosciences
T1 sequence (P43403 1-619): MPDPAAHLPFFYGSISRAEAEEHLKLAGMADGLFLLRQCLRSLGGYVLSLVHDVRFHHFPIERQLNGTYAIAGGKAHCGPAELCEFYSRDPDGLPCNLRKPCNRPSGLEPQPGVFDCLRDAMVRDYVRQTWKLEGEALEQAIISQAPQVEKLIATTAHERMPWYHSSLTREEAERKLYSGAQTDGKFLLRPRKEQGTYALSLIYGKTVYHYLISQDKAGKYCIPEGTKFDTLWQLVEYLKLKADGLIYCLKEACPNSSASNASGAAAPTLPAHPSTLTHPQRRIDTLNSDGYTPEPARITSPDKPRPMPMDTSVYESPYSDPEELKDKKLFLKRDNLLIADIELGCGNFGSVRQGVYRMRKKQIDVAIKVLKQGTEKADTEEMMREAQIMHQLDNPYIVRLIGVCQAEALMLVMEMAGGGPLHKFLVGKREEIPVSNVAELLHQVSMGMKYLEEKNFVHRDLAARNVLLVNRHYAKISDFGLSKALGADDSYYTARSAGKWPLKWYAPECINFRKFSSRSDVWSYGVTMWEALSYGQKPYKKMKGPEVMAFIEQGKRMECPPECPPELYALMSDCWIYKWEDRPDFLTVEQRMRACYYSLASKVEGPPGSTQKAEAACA
As to the kind of experiment: Kinase inhibition assay: ZAP70. The conditions noted are these: at 1 μM concentration. It is filed as biochemical. How it is done:
Compounds of the present invention were tested for their capacity to inhibit a kinase panel which includes, but are not limited to, spleen tyrosine kinase (SYK), zeta-chain-associated protein kinase 70 (ZAP70), PTK2B protein tyrosine kinase 2 (PYK2), focal adhesion kinase (FAK), provirus integration of maloney kinase 1 (PIM1), rearranged during transfection kinase (RET), Fms-like tyrosine kinase 3 (FLT3), Janus kinase 2 (JAK2), and leucine-rich repeat kinase 2 (LRRK2).
Inhibition of SYK, ZAP70, PYK2, FAK, PIM1, RET, FLT3, JAK2 and LRRK2 Kinase Activity
Compounds of the invention were initially diluted to 10 mM in 100% DMSO (CALBIOCHEM™) for storage and made into kinase buffer solution to create a compound concentration ranging from 1 uM and 10 uM. Serial dilutions of compounds of the invention were dispensed into a 96-well plate (GREINER BIOSCIENCES™) at 6 μL each. Purified full-length human SYK, ZAP70, PIM1, PYK2 and truncated human FAK, RET, FLT3, JAK2, and LRRK2 (CARNA BIOSCIENCES™) were diluted in kinase buffer and added to the compound solutions and pre-incubated for 30 minutes at room temperature (1 hour for PYK2). […] The reaction mixture was incubated for 1 hour (2 hours for PYK2). Following the incubation, the stop solution made with EDTA, water, and Lance detection buffer ([…]™) was added (12μL each) to stop phosphorylation. […] The IC50 value of test compound was calculated at Gradpad Prism 5 unless specified otherwise.

Assay [2] has as its target T2, FLT3 (Homo sapiens, UniProt P36888).
T2 construct: truncated human FAK, RET, FLT3, JAK2, and LRRK2; purchased Carna Biosciences
T2 sequence (P36888 564-993 limits assumed): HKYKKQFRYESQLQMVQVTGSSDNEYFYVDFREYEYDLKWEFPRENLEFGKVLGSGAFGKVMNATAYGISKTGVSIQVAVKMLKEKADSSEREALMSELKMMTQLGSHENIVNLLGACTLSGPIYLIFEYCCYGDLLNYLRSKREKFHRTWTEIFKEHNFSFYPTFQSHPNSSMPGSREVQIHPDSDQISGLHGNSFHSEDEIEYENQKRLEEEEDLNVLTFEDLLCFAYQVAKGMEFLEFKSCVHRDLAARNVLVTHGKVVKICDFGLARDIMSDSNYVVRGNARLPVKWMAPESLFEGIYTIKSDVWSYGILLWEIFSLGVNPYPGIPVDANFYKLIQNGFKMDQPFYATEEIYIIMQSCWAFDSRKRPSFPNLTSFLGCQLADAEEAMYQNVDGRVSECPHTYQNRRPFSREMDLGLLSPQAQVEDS
The experiment in a line: Kinase inhibition assay: FLT3. Format: biochemical.

For assay [3], the system named is TNF-α release in THP-1 cells. The experiment in a line: SYK independent TNF-α release assay (LPS stimulation). Format: cell-based. The conditions noted are these: Homo sapiens, 18-hour incubation. The protocol:
Compounds of the present invention are tested for their effects on TNF-α release in human acute monocytic leukimia cell line (THP-1) to illustrate potential efficacy at the cellular level. TNF-α is a cytokine involved in systemic inflammation and is a member of a group of cytokines that stimulate the acute phase reaction. The primary role of TNF-α is in the regulation of immune cells. TNF-α is known to induce apoptotic cell death and inflammation and to inhibit early tumorigenesis and viral replication. Dysregulation and, in particular, overproduction of TNF-α have been implicated in a variety of human diseases, autoimmune disease, inflammation, arthritis and cancer.
Production or release of TNF-α is controlled by type of stimulus to which the cell responds. SYK activity is involved in mediating TNF-α production. When stimulated by IgG, cells increase TNF-α production in a SYK dependent manner (i.e., the SYK dependent pathway). However, when stimulated by lipopolysaccharide (LPS), they produce TNF-α in a SYK independent manner.
For SYK independent TNF-α release assay (i.e., via lipopolysaccharide (LPS)-stimulation), THP-1 cells derived from human monocytic cells were obtained from the American Type Culture Collection (ATCC, Manassas, Va.). This cell line was maintained with an RPMI medium (GIBCO™) containing 10 fetal bovine serum (FBS, GIBCO™) and 0.05 mM 2-mercaptoethanol. The THP-1 cells were seeded at 1×10^5 cells/100 μL/well into 96-well culture plates, and treated with lipopolysaccharide (1 μg/ml), and serially diluted compound was then added. After an 18-hour incubation period at 37° C., supernatants were collected for the determination of the TNF-α level by ELISA, and the remaining cells were subjected to an MTT assay to determine the cytotoxic effects.

`COc1cc(Nc2ncc(C)c(-n3cc(C)c(CO)c3)n2)cc(OC)c1OC` [Compound 21, (4-methyl-1-(5-methyl-2-(3,4,5-trimethoxyphenylamino)pyrimidin-4-yl)-1H-pyrrol-3-yl)methanol] registered an inhibition at 1 µM in assay [1] of 54.6%. For the same compound, in assay [2], the pIC50 was 8.72.

In assay [3] (0.3 μM), `Cc1cc(C)cc(Nc2ncc(F)c(-n3cc(C)c(CN4CC[C@@H](O)C4)c3)n2)c1` [Compound 82, (R)-1-((1-(2-(3,5-dimethylphenyl-amino)-5-fluoropyrimidin-4-yl)-4-methyl-1H-pyrrol-3-yl)methyl) pyrrolidin-3-ol] returned an inhibition at 0.3 µM of 18.1%. Besides, at 1 µM the inhibition in assay [3] (1 μM) was 21.5%.
